Drawing on the kinase profiling compilation of Christmann-Franck et al. (2016), this text covers residual activity for three compounds.

The term residual activity denotes the signal under treatment as a percentage of the control signal.

Sequence of CSNK1E (human) (P49674 whole entry, looked up): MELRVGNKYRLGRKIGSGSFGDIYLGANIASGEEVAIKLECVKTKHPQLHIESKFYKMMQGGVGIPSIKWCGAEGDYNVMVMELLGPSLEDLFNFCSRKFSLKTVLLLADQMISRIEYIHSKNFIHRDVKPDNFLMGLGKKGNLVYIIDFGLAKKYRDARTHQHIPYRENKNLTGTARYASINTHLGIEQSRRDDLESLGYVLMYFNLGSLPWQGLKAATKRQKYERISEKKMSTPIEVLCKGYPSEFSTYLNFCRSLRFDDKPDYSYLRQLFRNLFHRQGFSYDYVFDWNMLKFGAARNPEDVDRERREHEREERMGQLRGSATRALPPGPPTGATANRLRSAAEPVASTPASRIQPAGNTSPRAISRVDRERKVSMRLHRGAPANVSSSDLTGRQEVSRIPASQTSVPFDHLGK
Sequence of NUAK2 (human) (Q9H093 whole entry, looked up): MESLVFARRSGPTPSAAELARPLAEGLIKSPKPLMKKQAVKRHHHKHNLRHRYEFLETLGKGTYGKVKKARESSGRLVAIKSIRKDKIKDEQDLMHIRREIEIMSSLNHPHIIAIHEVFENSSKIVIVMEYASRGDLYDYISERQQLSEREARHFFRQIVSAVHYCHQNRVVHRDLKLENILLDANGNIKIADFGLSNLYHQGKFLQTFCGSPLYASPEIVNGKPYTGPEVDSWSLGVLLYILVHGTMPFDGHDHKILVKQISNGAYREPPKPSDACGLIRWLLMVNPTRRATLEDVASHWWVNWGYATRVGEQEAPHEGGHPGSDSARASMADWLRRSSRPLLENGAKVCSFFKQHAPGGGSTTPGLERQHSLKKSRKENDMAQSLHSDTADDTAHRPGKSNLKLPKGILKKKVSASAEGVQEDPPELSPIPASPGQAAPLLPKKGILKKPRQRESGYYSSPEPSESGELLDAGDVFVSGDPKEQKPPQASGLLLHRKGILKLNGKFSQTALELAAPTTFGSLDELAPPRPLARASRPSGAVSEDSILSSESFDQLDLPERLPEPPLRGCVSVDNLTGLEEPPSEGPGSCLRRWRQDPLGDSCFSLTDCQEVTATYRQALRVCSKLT
Sequence of MAP2K1 (human) (Q02750 whole entry, looked up): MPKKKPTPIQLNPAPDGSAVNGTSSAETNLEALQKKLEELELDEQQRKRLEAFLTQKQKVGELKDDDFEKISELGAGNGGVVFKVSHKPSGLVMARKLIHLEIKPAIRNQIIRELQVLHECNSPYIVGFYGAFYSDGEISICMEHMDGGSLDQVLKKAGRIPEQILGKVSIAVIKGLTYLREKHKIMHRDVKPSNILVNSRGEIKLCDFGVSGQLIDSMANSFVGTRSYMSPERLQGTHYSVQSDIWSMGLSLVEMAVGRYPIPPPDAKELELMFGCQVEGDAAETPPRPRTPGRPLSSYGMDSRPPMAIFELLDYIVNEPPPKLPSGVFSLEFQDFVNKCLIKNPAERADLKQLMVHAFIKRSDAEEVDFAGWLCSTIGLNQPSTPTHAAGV

The first assay deals with BRSK1 (human) (UniProt Q8TDC3). Description: radiometric filter-binding kinase assay, Kinase HotSpot. The following applies: compound 0.5 µM; ATP 10 µM.
For the compound `CN(C)C[C@H]1CCn2c(c(C3=C(c4cn(C)c5ccccc45)C(=O)NC3=O)c3ccccc32)C1`, the residual activity was 101%.

For the compound `Cn1nc2c3c(cccc31)C(=O)c1ccccc1-2`, the residual activity is 92.5%.

For `Nc1nccc(-c2c(-c3ccc(F)cc3)ncn2C2CCNCC2)n1`, the residual activity worked out at 99.7%.

The next assay addresses MST4 (human) (UniProt Q9P289). The assay is described as above. The settings on record: compound 0.5 µM; ATP 10 µM.
Regarding `CN(C)C[C@H]1CCn2c(c(C3=C(c4cn(C)c5ccccc45)C(=O)NC3=O)c3ccccc32)C1`, the residual activity was 78%.

As to `Cn1nc2c3c(cccc31)C(=O)c1ccccc1-2`, the residual activity was found to be 108%.

Turning to `Nc1nccc(-c2c(-c3ccc(F)cc3)ncn2C2CCNCC2)n1`, the residual activity was determined as 98.4%.

The next assay deals with MAPKAPK2 (human) (UniProt P49137). The description is as above. The settings on record: compound 0.5 µM; ATP 10 µM.
On to `CN(C)C[C@H]1CCn2c(c(C3=C(c4cn(C)c5ccccc45)C(=O)NC3=O)c3ccccc32)C1`, for which the residual activity amounted to 102%.

As for `Cn1nc2c3c(cccc31)C(=O)c1ccccc1-2`, the residual activity is 102%.

For `Nc1nccc(-c2c(-c3ccc(F)cc3)ncn2C2CCNCC2)n1`, the residual activity is 97.6%.

A further assay concerns the target CSNK1E (human) (UniProt P49674). Described as above. The settings on record: compound 0.5 µM; ATP 10 µM.
Consider `CN(C)C[C@H]1CCn2c(c(C3=C(c4cn(C)c5ccccc45)C(=O)NC3=O)c3ccccc32)C1`, for which the residual activity is 99.7%.

In the case of `Cn1nc2c3c(cccc31)C(=O)c1ccccc1-2`, the residual activity was 34.3%.

In the case of `Nc1nccc(-c2c(-c3ccc(F)cc3)ncn2C2CCNCC2)n1`, the residual activity worked out at 2.39%.

In a further assay the target is PRKCZ (human) (UniProt Q05513). The assay is described as above. The following applies: compound 0.5 µM; ATP 10 µM.
With `CN(C)C[C@H]1CCn2c(c(C3=C(c4cn(C)c5ccccc45)C(=O)NC3=O)c3ccccc32)C1`, the residual activity came out at 31%.

As to `Cn1nc2c3c(cccc31)C(=O)c1ccccc1-2`, the residual activity worked out at 97.9%.

Consider `Nc1nccc(-c2c(-c3ccc(F)cc3)ncn2C2CCNCC2)n1`, for which the residual activity is 106%.

Another assay addresses MAP2K1 (human) (UniProt Q02750). The description is as above. The settings on record: compound 0.5 µM; ATP 10 µM.
In the case of `CN(C)C[C@H]1CCn2c(c(C3=C(c4cn(C)c5ccccc45)C(=O)NC3=O)c3ccccc32)C1`, the residual activity was 98.8%.

Take `Cn1nc2c3c(cccc31)C(=O)c1ccccc1-2`: the residual activity was 86.3%.

Regarding `Nc1nccc(-c2c(-c3ccc(F)cc3)ncn2C2CCNCC2)n1`, the residual activity was 98.2%.

The target in another assay is MAPK8 (human) (UniProt P45983). The description is as above. The settings on record: compound 0.5 µM; ATP 10 µM.
As to `CN(C)C[C@H]1CCn2c(c(C3=C(c4cn(C)c5ccccc45)C(=O)NC3=O)c3ccccc32)C1`, the residual activity was 100%.

Regarding `Cn1nc2c3c(cccc31)C(=O)c1ccccc1-2`, the residual activity amounted to 87.2%.

For `Nc1nccc(-c2c(-c3ccc(F)cc3)ncn2C2CCNCC2)n1`, the residual activity is 94.8%.

A further assay addresses LIMK1 (human) (UniProt P53667). The description is as above. The settings on record: compound 0.5 µM; ATP 10 µM.
Consider `CN(C)C[C@H]1CCn2c(c(C3=C(c4cn(C)c5ccccc45)C(=O)NC3=O)c3ccccc32)C1`, for which the residual activity was found to be 89.4%.

On to `Cn1nc2c3c(cccc31)C(=O)c1ccccc1-2`, for which the residual activity stood at 97.1%.

Consider `Nc1nccc(-c2c(-c3ccc(F)cc3)ncn2C2CCNCC2)n1`, for which the residual activity was 89.6%.

For another assay, the target named is ADRBK2 (human) (UniProt P35626). The description is as above. The settings on record: compound 0.5 µM; ATP 10 µM.
Sequence of ADRBK2 (human) (P35626 whole entry, looked up): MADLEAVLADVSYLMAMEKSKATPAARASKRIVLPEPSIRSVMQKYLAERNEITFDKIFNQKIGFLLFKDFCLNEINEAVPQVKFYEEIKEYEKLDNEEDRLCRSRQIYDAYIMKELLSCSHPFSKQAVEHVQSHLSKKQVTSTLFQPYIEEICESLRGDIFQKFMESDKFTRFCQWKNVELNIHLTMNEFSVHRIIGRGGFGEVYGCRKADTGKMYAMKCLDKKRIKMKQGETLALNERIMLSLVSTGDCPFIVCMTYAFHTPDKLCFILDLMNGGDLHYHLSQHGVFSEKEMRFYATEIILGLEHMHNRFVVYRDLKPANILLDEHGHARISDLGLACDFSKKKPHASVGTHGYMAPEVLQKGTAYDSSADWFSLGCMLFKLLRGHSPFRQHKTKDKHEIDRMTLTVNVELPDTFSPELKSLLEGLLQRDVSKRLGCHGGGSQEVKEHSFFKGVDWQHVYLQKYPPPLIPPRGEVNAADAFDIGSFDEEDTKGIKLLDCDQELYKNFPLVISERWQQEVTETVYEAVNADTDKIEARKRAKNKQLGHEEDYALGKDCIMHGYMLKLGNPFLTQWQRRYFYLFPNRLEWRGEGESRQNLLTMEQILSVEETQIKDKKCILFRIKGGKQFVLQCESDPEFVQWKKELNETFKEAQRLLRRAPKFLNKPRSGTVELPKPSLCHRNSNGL
As to `CN(C)C[C@H]1CCn2c(c(C3=C(c4cn(C)c5ccccc45)C(=O)NC3=O)c3ccccc32)C1`, the residual activity came to 102%.

Take `Cn1nc2c3c(cccc31)C(=O)c1ccccc1-2`: the residual activity was 93.6%.

For `Nc1nccc(-c2c(-c3ccc(F)cc3)ncn2C2CCNCC2)n1`, the residual activity was found to be 97.6%.

Another assay deals with CSF1R (human) (UniProt P07333). The description is as above. The settings on record: compound 0.5 µM; ATP 10 µM.
For `CN(C)C[C@H]1CCn2c(c(C3=C(c4cn(C)c5ccccc45)C(=O)NC3=O)c3ccccc32)C1`, the residual activity is 98.1%.

On to `Cn1nc2c3c(cccc31)C(=O)c1ccccc1-2`, for which the residual activity is 97%.

Regarding `Nc1nccc(-c2c(-c3ccc(F)cc3)ncn2C2CCNCC2)n1`, the residual activity came out at 100%.

The target in a further assay is RPS6KB1 (human) (UniProt P23443). Described as above. The following applies: compound 0.5 µM; ATP 10 µM.
Sequence of RPS6KB1 (human) (P23443 whole entry, looked up): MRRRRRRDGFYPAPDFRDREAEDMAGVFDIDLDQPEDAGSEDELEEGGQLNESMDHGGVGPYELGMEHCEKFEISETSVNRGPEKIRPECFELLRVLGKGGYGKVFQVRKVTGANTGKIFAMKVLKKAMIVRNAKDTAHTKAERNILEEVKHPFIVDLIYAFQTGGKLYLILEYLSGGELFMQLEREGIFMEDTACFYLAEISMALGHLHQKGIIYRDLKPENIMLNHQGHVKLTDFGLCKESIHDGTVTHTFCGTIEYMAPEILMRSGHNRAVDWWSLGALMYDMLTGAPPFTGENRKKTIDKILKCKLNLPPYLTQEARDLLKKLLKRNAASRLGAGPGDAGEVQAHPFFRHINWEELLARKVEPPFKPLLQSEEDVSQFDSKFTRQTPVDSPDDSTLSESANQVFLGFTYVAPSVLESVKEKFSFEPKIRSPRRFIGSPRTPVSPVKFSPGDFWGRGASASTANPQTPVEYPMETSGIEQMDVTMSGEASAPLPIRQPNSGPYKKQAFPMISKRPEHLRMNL
Consider `CN(C)C[C@H]1CCn2c(c(C3=C(c4cn(C)c5ccccc45)C(=O)NC3=O)c3ccccc32)C1`, for which the residual activity came to 20%.

Turning to `Cn1nc2c3c(cccc31)C(=O)c1ccccc1-2`, the residual activity turned out to be 96.3%.

In the case of `Nc1nccc(-c2c(-c3ccc(F)cc3)ncn2C2CCNCC2)n1`, the residual activity was 98.2%.

A further assay has as its target NUAK2 (human) (UniProt Q9H093). Described as above. The following applies: compound 0.5 µM; ATP 10 µM.
On to `CN(C)C[C@H]1CCn2c(c(C3=C(c4cn(C)c5ccccc45)C(=O)NC3=O)c3ccccc32)C1`, for which the residual activity amounted to 121%.

Take `Cn1nc2c3c(cccc31)C(=O)c1ccccc1-2`: the residual activity amounted to 85.7%.

Take `Nc1nccc(-c2c(-c3ccc(F)cc3)ncn2C2CCNCC2)n1`: the residual activity amounted to 122%.

For the next assay, the target named is NEK2 (human) (UniProt P51955). Described as above. The following applies: compound 0.5 µM; ATP 10 µM.
Sequence of NEK2 (human) (P51955 whole entry, looked up): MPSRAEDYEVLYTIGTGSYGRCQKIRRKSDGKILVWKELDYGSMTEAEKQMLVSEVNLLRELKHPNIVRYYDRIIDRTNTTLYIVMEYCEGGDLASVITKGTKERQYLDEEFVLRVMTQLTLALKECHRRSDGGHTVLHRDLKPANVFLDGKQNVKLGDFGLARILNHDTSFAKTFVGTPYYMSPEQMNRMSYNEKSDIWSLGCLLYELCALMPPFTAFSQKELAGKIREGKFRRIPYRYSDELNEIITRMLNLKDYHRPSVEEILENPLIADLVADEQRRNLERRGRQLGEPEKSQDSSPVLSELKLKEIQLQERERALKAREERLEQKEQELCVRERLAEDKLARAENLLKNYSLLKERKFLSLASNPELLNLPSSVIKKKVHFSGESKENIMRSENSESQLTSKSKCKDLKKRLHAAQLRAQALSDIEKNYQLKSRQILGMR
Turning to `CN(C)C[C@H]1CCn2c(c(C3=C(c4cn(C)c5ccccc45)C(=O)NC3=O)c3ccccc32)C1`, the residual activity worked out at 106%.

Regarding `Cn1nc2c3c(cccc31)C(=O)c1ccccc1-2`, the residual activity turned out to be 88.2%.

For the compound `Nc1nccc(-c2c(-c3ccc(F)cc3)ncn2C2CCNCC2)n1`, the residual activity is 103%.

For the next assay, the target named is MAP2K2 (human) (UniProt P36507). The description is as above. The following applies: compound 0.5 µM; ATP 10 µM.
In the case of `CN(C)C[C@H]1CCn2c(c(C3=C(c4cn(C)c5ccccc45)C(=O)NC3=O)c3ccccc32)C1`, the residual activity was 101%.

As to `Cn1nc2c3c(cccc31)C(=O)c1ccccc1-2`, the residual activity was 102%.

Take `Nc1nccc(-c2c(-c3ccc(F)cc3)ncn2C2CCNCC2)n1`: the residual activity is 105%.

The target in the next assay is SRPK2 (human) (UniProt P78362). Described as above. The settings on record: compound 0.5 µM; ATP 10 µM.
Sequence of SRPK2 (human) (P78362 whole entry, looked up): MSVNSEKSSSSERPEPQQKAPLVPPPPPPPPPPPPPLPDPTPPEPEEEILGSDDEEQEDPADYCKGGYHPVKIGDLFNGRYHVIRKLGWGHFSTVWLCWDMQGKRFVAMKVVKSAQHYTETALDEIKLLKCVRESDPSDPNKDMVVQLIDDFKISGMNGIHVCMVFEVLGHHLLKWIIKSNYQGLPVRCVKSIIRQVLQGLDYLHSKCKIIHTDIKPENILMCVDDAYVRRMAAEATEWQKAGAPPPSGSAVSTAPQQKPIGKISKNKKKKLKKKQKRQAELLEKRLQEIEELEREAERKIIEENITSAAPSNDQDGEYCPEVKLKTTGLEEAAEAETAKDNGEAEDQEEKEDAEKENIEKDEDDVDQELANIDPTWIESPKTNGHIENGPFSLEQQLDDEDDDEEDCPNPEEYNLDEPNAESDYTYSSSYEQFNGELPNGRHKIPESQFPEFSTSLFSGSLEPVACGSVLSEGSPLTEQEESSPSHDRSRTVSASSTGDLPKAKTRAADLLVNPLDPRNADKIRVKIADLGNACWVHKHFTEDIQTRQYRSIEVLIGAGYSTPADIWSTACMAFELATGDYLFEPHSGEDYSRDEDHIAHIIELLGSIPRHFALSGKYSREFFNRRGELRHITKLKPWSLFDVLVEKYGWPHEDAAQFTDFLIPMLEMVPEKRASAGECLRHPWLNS
Turning to `CN(C)C[C@H]1CCn2c(c(C3=C(c4cn(C)c5ccccc45)C(=O)NC3=O)c3ccccc32)C1`, the residual activity was 91.5%.

Take `Cn1nc2c3c(cccc31)C(=O)c1ccccc1-2`: the residual activity was 97.2%.

On to `Nc1nccc(-c2c(-c3ccc(F)cc3)ncn2C2CCNCC2)n1`, for which the residual activity is 96.4%.

Another assay has as its target MAPKAPK3 (human) (UniProt Q16644). The description is as above. The following applies: compound 0.5 µM; ATP 10 µM.
`CN(C)C[C@H]1CCn2c(c(C3=C(c4cn(C)c5ccccc45)C(=O)NC3=O)c3ccccc32)C1`: the residual activity was determined as 97.9%.

`Cn1nc2c3c(cccc31)C(=O)c1ccccc1-2`: the residual activity turned out to be 104%.

For `Nc1nccc(-c2c(-c3ccc(F)cc3)ncn2C2CCNCC2)n1`, the residual activity was 99.4%.

For another assay, the target named is MET (human) (UniProt P08581). The description is as above. The settings on record: compound 0.5 µM; ATP 10 µM.
Take `CN(C)C[C@H]1CCn2c(c(C3=C(c4cn(C)c5ccccc45)C(=O)NC3=O)c3ccccc32)C1`: the residual activity worked out at 96.2%.

In the case of `Cn1nc2c3c(cccc31)C(=O)c1ccccc1-2`, the residual activity amounted to 107%.

As to `Nc1nccc(-c2c(-c3ccc(F)cc3)ncn2C2CCNCC2)n1`, the residual activity stood at 104%.

Another assay addresses CHEK2 (human) (UniProt O96017). Described as above. The settings on record: compound 0.5 µM; ATP 10 µM.
`CN(C)C[C@H]1CCn2c(c(C3=C(c4cn(C)c5ccccc45)C(=O)NC3=O)c3ccccc32)C1`: the residual activity came to 95%.

As for `Cn1nc2c3c(cccc31)C(=O)c1ccccc1-2`, the residual activity was 89.8%.

On to `Nc1nccc(-c2c(-c3ccc(F)cc3)ncn2C2CCNCC2)n1`, for which the residual activity was determined as 101%.

The target of a further assay is STK10 (human) (UniProt O94804). Described as above. The settings on record: compound 0.5 µM; ATP 10 µM.
Sequence of STK10 (human) (O94804 whole entry, looked up): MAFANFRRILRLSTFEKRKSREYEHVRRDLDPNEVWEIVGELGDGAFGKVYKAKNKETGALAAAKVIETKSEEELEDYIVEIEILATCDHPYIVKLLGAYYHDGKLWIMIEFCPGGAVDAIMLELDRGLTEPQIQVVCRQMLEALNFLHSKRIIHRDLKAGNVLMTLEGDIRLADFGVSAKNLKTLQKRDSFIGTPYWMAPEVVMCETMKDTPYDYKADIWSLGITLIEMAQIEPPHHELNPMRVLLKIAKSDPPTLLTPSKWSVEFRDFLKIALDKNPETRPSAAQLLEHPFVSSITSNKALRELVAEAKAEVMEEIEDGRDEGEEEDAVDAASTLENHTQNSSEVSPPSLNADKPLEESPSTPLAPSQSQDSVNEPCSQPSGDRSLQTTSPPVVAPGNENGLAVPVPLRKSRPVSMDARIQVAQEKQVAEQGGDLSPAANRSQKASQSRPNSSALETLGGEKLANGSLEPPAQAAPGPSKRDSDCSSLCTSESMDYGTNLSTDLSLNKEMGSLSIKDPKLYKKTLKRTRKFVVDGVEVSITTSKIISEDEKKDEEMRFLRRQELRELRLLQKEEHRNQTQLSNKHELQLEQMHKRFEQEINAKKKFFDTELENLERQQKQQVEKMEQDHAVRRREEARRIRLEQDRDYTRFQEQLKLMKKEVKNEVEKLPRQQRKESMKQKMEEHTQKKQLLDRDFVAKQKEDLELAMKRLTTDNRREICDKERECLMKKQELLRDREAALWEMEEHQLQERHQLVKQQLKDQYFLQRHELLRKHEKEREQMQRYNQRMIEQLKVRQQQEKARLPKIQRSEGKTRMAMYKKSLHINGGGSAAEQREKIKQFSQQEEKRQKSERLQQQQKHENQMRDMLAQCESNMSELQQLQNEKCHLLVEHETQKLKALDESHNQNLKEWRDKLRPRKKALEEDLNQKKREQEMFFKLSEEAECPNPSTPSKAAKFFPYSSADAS
On to `CN(C)C[C@H]1CCn2c(c(C3=C(c4cn(C)c5ccccc45)C(=O)NC3=O)c3ccccc32)C1`, for which the residual activity stood at 26.6%.

With `Cn1nc2c3c(cccc31)C(=O)c1ccccc1-2`, the residual activity amounted to 94.5%.

Take `Nc1nccc(-c2c(-c3ccc(F)cc3)ncn2C2CCNCC2)n1`: the residual activity is 90.3%.

A further assay deals with SRPK3 (human) (UniProt Q9UPE1). Described as above. The following applies: compound 0.5 µM; ATP 10 µM.
Regarding `CN(C)C[C@H]1CCn2c(c(C3=C(c4cn(C)c5ccccc45)C(=O)NC3=O)c3ccccc32)C1`, the residual activity amounted to 100%.

As for `Cn1nc2c3c(cccc31)C(=O)c1ccccc1-2`, the residual activity stood at 96.3%.

As for `Nc1nccc(-c2c(-c3ccc(F)cc3)ncn2C2CCNCC2)n1`, the residual activity worked out at 99.3%.

The next assay has as its target PIM1 (human) (UniProt P11309). The assay is described as above. The settings on record: compound 0.5 µM; ATP 10 µM.
`CN(C)C[C@H]1CCn2c(c(C3=C(c4cn(C)c5ccccc45)C(=O)NC3=O)c3ccccc32)C1`: the residual activity was 63.2%.

For `Cn1nc2c3c(cccc31)C(=O)c1ccccc1-2`, the residual activity turned out to be 80.3%.

With `Nc1nccc(-c2c(-c3ccc(F)cc3)ncn2C2CCNCC2)n1`, the residual activity came to 97%.
